Experimental data taken from US8536168B2 (Novartis AG, priority 2007, dated 2013).
Like-named read-outs stand apart in the source and are kept apart here.

Key:
[1] = molecular target: mouse Smoothened receptor (Mus musculus, UniProt P56726); experiment: Smo binding assay, displacement of radio-labeled smoothened agonist, filter binding format (mouse); conditions: displacement of small molecule agonist of Smoothened, read-out: Mouse Smo bdg., IC50
From the text: A Smo binding assay was developed using radio-labeled smoothened agonist for compound competition.

Gli-luciferase activity = experiment: Reporter gene assay (RGA) in TMHh12 cells, antagonism of Gli-luciferase activity in the presence of a Smo agonist; type: cell-based
Description: Activity of the compounds was evaluated using a reporter gene assay (RGA) in TMHh12 cells.

[2] = molecular target: human Smoothened receptor (Homo sapiens, UniProt Q99835); experiment: Smo binding assay, displacement of radio-labeled smoothened agonist, filter binding format (human); conditions: displacement of small molecule agonist of Smoothened, read-out: Human Smo bdg., IC50
From the text: A Smo binding assay was developed using radio-labeled smoothened agonist for compound competition. Table 9 lists the IC50 for displacement of a small molecule agonist of Smoothened determined in a filter binding format for the mouse and human Smoothened receptor.

[3] = 25 nM small molecule Smo agonist, read-out: RGA (25 nM Smo agonist) IC50
[4] = read-out: RGA (1 nM Smo agonist) IC50, 1 nM small molecule Smo agonist

Chain of human Smoothened receptor (Q99835 28-787): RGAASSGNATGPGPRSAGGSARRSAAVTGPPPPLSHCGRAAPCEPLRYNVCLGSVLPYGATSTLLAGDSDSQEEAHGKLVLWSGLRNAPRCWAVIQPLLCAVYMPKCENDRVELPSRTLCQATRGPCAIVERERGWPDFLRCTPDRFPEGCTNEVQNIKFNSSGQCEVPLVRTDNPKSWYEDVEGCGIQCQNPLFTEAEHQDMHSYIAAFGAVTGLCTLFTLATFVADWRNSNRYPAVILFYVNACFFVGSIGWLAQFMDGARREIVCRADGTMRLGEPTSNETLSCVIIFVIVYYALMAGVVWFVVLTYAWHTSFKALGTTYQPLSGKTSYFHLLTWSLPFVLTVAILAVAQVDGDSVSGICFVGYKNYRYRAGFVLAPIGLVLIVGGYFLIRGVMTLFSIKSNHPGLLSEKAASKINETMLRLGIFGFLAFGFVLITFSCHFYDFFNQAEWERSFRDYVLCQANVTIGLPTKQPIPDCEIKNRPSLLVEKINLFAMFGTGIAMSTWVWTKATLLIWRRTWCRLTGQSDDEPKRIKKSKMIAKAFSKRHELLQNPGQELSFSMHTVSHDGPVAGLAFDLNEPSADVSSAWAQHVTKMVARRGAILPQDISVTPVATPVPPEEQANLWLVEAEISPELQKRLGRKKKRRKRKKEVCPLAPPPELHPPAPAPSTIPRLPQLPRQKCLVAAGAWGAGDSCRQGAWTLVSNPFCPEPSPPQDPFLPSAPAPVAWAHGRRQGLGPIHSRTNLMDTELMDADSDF
Chain of mouse Smoothened receptor (P56726 33-793): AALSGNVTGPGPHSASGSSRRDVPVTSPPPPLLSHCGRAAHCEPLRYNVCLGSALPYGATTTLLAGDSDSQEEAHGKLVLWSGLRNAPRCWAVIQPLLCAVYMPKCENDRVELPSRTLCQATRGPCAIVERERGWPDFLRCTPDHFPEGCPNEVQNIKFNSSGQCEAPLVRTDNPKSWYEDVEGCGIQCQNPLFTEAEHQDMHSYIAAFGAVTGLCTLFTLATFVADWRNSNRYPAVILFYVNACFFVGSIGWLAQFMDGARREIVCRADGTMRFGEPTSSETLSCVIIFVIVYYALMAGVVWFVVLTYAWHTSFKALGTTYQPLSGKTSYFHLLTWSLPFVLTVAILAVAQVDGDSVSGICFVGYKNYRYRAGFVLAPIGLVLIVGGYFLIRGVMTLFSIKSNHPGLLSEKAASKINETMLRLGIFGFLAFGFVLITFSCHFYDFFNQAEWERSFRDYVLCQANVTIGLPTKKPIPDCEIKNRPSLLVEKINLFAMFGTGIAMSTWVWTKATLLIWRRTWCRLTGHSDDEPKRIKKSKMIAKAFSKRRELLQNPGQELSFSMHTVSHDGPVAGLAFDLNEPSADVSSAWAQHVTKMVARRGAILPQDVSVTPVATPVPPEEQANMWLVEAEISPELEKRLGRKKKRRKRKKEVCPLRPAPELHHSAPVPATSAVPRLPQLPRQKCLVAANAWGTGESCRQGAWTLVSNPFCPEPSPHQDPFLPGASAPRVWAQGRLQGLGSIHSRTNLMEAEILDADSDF

IC50 [1] | IC50 (Gli-luciferase activity; [3]) | IC50 (Gli-luciferase activity; [4]) | IC50 [2] | Compound
< 100 nM | 100 to 1000 nM | < 100 nM | 100 to 1000 nM | OC1(c2ccc(N3CCN(c4nnc(Cc5ccccc5)c5ccccc45)CC3)nc2)COC1 [Example 111]
< 100 nM | 100 to 1000 nM | < 100 nM | < 100 nM | Cc1ccccc1Cc1nnc(N2CCN(c3ccc(C(C)(C)O)cn3)CC2)c2ccccc12 [Example 194]
< 100 nM | 100 to 1000 nM | < 100 nM | < 100 nM | CN(C)CC(=O)NCc1ccc(N2CCN(c3nnc(Cc4ccccc4)c4ccccc34)CC2)nc1 [Example 212]
< 100 nM | 100 to 1000 nM | < 100 nM | < 100 nM | N#Cc1ccc(N2CCN(c3nnc(Cc4ccc(Cl)cc4)c4ccccc34)CC2)nc1 [Example 59]
< 100 nM | 100 to 1000 nM | < 100 nM | < 100 nM | CCOC(=O)c1ccc(N2CCN(c3nnc(Cc4ccccc4Cl)c4ccccc34)[C@@H](C)C2)nc1 [Example 188]
< 100 nM | 100 to 1000 nM | < 100 nM | < 100 nM | CCOC(=O)c1ccc(N2CCN(c3nnc(Cc4ccc(F)cc4F)c4ccccc34)[C@@H](C)C2)nc1 [Example 187]
< 100 nM | 1000 to 10000 nM | < 100 nM | < 100 nM | Cc1cc(Cc2ccc(F)cc2)nnc1N1CCN(c2ccc(C(F)(F)F)cn2)CC1 [Example 90]
1000 to 10000 nM | 1000 to 10000 nM | 1000 to 10000 nM | 1000 to 10000 nM | O=C(NC1CNC1)c1ccc(N2CCN(c3nnc(Cc4ccccc4)c4ccccc34)CC2)nc1 [Example 54y]
100 to 1000 nM | 100 to 1000 nM | < 100 nM | 100 to 1000 nM | FC(F)(F)c1ccnc(N2CCN(c3nnc(Cc4ccccc4)c4ccccc34)CC2)n1 [Example 50]
< 100 nM | 1000 to 10000 nM | 100 to 1000 nM | < 100 nM | CCOC(=O)c1ccc(N2CCN(c3nnc(Cc4ccc(F)cc4)c4ccccc34)CC2)nc1 [Example 183]
100 to 1000 nM | 100 to 1000 nM | < 100 nM | 100 to 1000 nM | CC(O)CC(=O)NCc1ccc(N2CCN(c3nnc(Cc4ccccc4)c4ccccc34)CC2)nc1 (stereo not shown) [Example 213]
100 to 1000 nM | 100 to 1000 nM | 100 to 1000 nM | 100 to 1000 nM | N#Cc1ccc(N2CCN(c3nnc(Cc4ccc(F)cc4)c4c3CCCC4)CC2)nc1 [Example 93b]
< 100 nM | 100 to 1000 nM | < 100 nM | 100 to 1000 nM | FC(F)(F)c1c[nH]c(C2CCN(c3nnc(Cc4ccccc4)c4ccccc34)CC2)n1 [Example 112]
< 100 nM | 100 to 1000 nM | < 100 nM | 100 to 1000 nM | CN(C)C(=O)c1ccc(N2CCN(c3nnc(Cc4ccccc4)c4ccccc34)CC2)nc1 [Example 54s]
< 100 nM | 100 to 1000 nM | < 100 nM | < 100 nM | OC(c1ccc(N2CCN(c3nnc(Cc4ccccc4)c4ccccc34)CC2)nc1)C1CCCC1 (stereo not shown) [Example 221]
< 100 nM | < 100 nM | < 100 nM | < 100 nM | OC(c1ccc(N2CCN(c3nnc(Cc4ccccc4)c4ccccc34)CC2)nc1)(C(F)(F)F)C(F)(F)F [Example 110]
100 to 1000 nM | 1000 to 10000 nM | < 100 nM | 100 to 1000 nM | Fc1ccc(Cn2cc(C3CCN(c4ccc(C(F)(F)F)cn4)CC3)c3ccccc32)cc1 [Example 95, 4-[1-(4-Fluoro-benzyl)-1H-indol-3-yl)-5′-trifluoromethyl-3,4,5,6-tetrahydro-2H-[1,2]-bipyridinyl]
100 to 1000 nM | 100 to 1000 nM | < 100 nM | 100 to 1000 nM | CCC(=O)NCc1ccc(N2CCN(c3nnc(Cc4ccccc4)c4ccccc34)CC2)cc1 [Example 78a]
< 100 nM | 100 to 1000 nM | < 100 nM | < 100 nM | CC(C)(O)c1cnc(N2CCN(c3nnc(Cc4ccccc4)c4ccccc34)CC2)nc1 [Example 151]
100 to 1000 nM | 1000 to 10000 nM | 100 to 1000 nM | 1000 to 10000 nM | CC(=O)Nc1ccc(C2CCN(c3nnc(Cc4ccccc4)c4ccccc34)CC2)cc1 [Example 129]
< 100 nM | 100 to 1000 nM | < 100 nM | 100 to 1000 nM | COC(=O)Nc1ccc(N2CCN(c3nnc(Cc4ccccc4)c4ccccc34)CC2)nc1 [Example 239, {6-[4-(4-Benzyl-phthalazin-1-yl)-piperazin-1-yl]-pyridin-3-yl}-carbamic acid methyl ester]
100 to 1000 nM | < 100 nM | < 100 nM | 100 to 1000 nM | COCC(=O)NCc1ccc(N2CCN(c3nnc(Cc4ccccc4)c4ccccc34)CC2)nc1 [Example 208]

IC50 [1] | IC50 (Gli-luciferase activity; [3]) | IC50 (Gli-luciferase activity; [4]) | IC50 [2] | Compound
< 100 nM | 1000 to 10000 nM | < 100 nM | 100 to 1000 nM | Cc1cc(C)nc(N2CCN(c3nnc(Cc4ccccc4)c4ccccc34)CC2)n1 [Example 48]
< 100 nM | < 100 nM | < 100 nM | < 100 nM | C[C@H]1CN(c2ccc(C(C)(C)O)cn2)CCN1c1nnc(Cc2ccccc2)c2ccccc12 [Example 155]
100 to 1000 nM | 100 to 1000 nM | < 100 nM | 100 to 1000 nM | O=C(c1ccc(N2CCN(c3nnc(Cc4ccccc4)c4ccccc34)CC2)nc1)N1CC[S+]([O-])C1 (stereo not shown) [Example 54q]
< 100 nM | 100 to 1000 nM | 100 to 1000 nM | 100 to 1000 nM | COC(=O)CNC(=O)c1ccc(N2CCN(c3nnc(Cc4ccccc4)c4ccccc34)CC2)nc1 [Example 54r]
< 100 nM | 100 to 1000 nM | < 100 nM | < 100 nM | CN(CCO)C(=O)c1ccc(N2CCN(c3nnc(Cc4ccc(F)cc4)c4ccccc34)CC2)nc1 [Example 198, 6-{4-[4-(4-Fluoro-benzyl)-phthalazin-1-yl]-piperazin-1-yl}-N-(2-hydroxyethyl)-N-methyl-nicotinamide]
< 100 nM | < 100 nM | < 100 nM | < 100 nM | CC(C)(O)c1cnc(N2CCN(c3nnc(Cc4ccccc4)c4ccccc34)CC2)nc1C(F)(F)F [Example 149]
< 100 nM | < 100 nM | < 100 nM | < 100 nM | CC(C)CC(=O)NCc1ccc(N2CCN(c3nnc(Cc4ccccc4)c4ccccc34)CC2)cc1 [Example 78c]
< 100 nM | < 100 nM | < 100 nM | < 100 nM | CC(=O)NCc1ccc(N2CCN(c3nnc(Cc4ccccc4)c4ccccc34)[C@@H](C)C2)nc1 [Example 216]
< 100 nM | < 100 nM | < 100 nM | < 100 nM | CC(=O)c1ccc(N2CCN(c3nnc(Cc4ccccc4)c4ccccc34)CC2)nc1 [Example 134]
< 100 nM | 100 to 1000 nM | 100 to 1000 nM | 100 to 1000 nM | N#Cc1ccc(N2CCN(c3nnc(Cc4cccc(Br)c4)c4ccccc34)CC2)nc1 [Example 67]
100 to 1000 nM | 100 to 1000 nM | < 100 nM | 100 to 1000 nM | NC(=O)c1ccc(N2CCN(c3nnc(Cc4ccccc4)c4ccccc34)CC2)nc1 [Example 53]
< 100 nM | < 100 nM | < 100 nM | < 100 nM | CCN(CCO)C(=O)c1ccc(N2CCN(c3nnc(Cc4ccccc4)c4ccccc34)CC2)nc1 [Example 54d]
100 to 1000 nM | 1000 to 10000 nM | < 100 nM | 100 to 1000 nM | COc1ccc(Cc2nnc(N3CCN(c4ccc(C#N)cn4)CC3)c3ccccc23)cc1 [Example 64]
1000 to 10000 nM | 1000 to 10000 nM | < 100 nM | 1000 to 10000 nM | CN(C)Cc1ccc(N2CCN(c3nnc(Cc4ccccc4)c4ccccc34)CC2)nc1 [Example 217, {6-[4-(4-Benzyl-phthalazin-1-yl)-piperazin-1-yl]-pyridin-3-ylmethyl}-dimethyl-amine]
< 100 nM | 100 to 1000 nM | < 100 nM | 100 to 1000 nM | OC1CCN(Cc2ccc(N3CCN(c4nnc(Cc5ccccc5)c5ccccc45)CC3)nc2)C1 (stereo not shown) [Example 223]
100 to 1000 nM | 1000 to 10000 nM | 100 to 1000 nM | 100 to 1000 nM | C[C@@H]1CN(c2ccc(C#N)cn2)CCN1c1nnc(Cc2ccccc2)c2ccccc12 [Example 118]
1000 to 10000 nM | 1000 to 10000 nM | 1000 to 10000 nM | 1000 to 10000 nM | Cc1c(N2CCN(c3ccc(C(F)(F)F)cn3)CC2)nnc(Cc2ccccc2)c1CNCc1ccccc1 [Example 242, N-benzyl-1-(3-benzyl-5-methyl-6-(4-(5-(trifluoromethyl)pyridin-2-yl)piperazin-1-yl)pyridazin-4-yl)methanamine]
100 to 1000 nM | 1000 to 10000 nM | < 100 nM | 100 to 1000 nM | Cc1cccc(Cc2nnc(N3CCN(c4ccc(C#N)cn4)CC3)c3ccccc23)c1 [Example 69]
100 to 1000 nM | 100 to 1000 nM | 100 to 1000 nM | 1000 to 10000 nM | N#Cc1ccc(N2CCN(c3cnc(Cc4ccccc4)c4ccccc34)CC2)nc1 [Example 79, 6-[4-(1-Benzyl-isoquinolin-4-yl)-piperazin-1-yl]-nicotinonitrile]
< 100 nM | 100 to 1000 nM | < 100 nM | 100 to 1000 nM | CN(Cc1ccc(N2CCN(c3nnc(Cc4ccccc4)c4ccccc34)CC2)nc1)C1CCOCC1 [Example 226]
100 to 1000 nM | 1000 to 10000 nM | < 100 nM | 100 to 1000 nM | N#Cc1ccc(N2CCN(c3nnc(Cc4ccccc4Cl)c4ccccc34)CC2)nc1 [Example 174]
